Assay results from publication PMC6950245, “Identification and Characterization of ShSPI, a Kazal-Type Elastase Inhibitor from the Venom of Scolopendra Hainanum” (Toxins, 2019).
Where a SMILES comes first, the peptide text is derived from it. Bridges are numbered along the chain shown (N, C = ends).

Molecular target: T1, human neutrophil elastase (HNE) (Homo sapiens, UniProt P08246)
T1 construct: purchased Sigma-Aldrich E8140
T1 sequence (P08246 30-267): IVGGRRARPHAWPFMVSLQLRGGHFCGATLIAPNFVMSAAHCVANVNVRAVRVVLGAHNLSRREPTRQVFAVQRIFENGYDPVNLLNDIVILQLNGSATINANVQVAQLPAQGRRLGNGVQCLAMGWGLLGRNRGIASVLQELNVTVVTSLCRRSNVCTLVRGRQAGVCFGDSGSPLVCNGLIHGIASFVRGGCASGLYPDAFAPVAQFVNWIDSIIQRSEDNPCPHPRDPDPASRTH
Test: Protease inhibition assay, human neutrophil elastase (chromogenic substrate, Dixon method)
Format: biochemical
From the text: Human neutrophils elastase (HNE, E8140), porcine pancreatic elastase (PPE, E0127), cathepsin G (CG, C4428), human trypsin (T6424), α-chymotrypsin from human pancreas (C8946), and thrombin from human plasma (T4393) were all purchased from Sigma-Aldrich (USA). Factor Xa (FXa, HFXa 1011) and Factor XIIa (FXIIa, HFXIIa 1212a) were from Enzyme Research Laboratories (South Bend, IN, USA). Kallikrein from human plasma (420307) was from Merck Millipore (Billerica, MA, USA).
Substrate for HNE and PPE (MeOSuc-Ala-Ala-Pro-Val-pNA, 324696) was purchased from Merck Millipore (USA). Substrates for CG (Succinyl-Ala-Ala-Pro-Phe-pNA, 573462), trypsin (Nalpha-Benzoyl-L-arginine 4-nitroanilide hydrochloride, B3133), FXa (CH3OCO-D-CHA-Gly-Arg-pNA-AcOH, F3301), chymotrypsin (N-Succinyl-Gly-Gly-Phe-pNA, S1899), thrombin (β-Ala-Gly-Arg-pNA diacetate, T3068), and kallikrein (Z-Phe-Arg 7-amido-4-methylcoumarin hydrochloride, C9521) were purchased from Sigma-Aldrich (USA).
As mentioned in our previous study, experiments for protease inhibitory activity were assayed in buffer (0.05 M Tris-HCl, pH 7.8) at 37 °C. […] At the end of the incubation, the reaction was initiated by the addition of the exclusive substrate solution and monitored by recording the absorbance at 405 nm every 30 s for 30 min. Enzyme activity in each well was calculated based on the initial slope of the reaction curve, and percentage of the initial slope of the uninhibited reaction was expressed. The inhibition constant Ki value was determined according to the Dixon method.

Row | SMILES | Ki
1 | CC[C@H](C)[C@@H]1NC(=O)[C@H](C)NC(=O)[C@@H]2CCCN2C(=O)[C@@H]2CSSC[C@H](NC(=O)[C@H](CO)NC(=O)[C@H](CC(N)=O)NC(=O)[C@H](CO)NC(=O)[C@H](Cc3ccc(O)cc3)NC(=O)[C@H](CCSC)NC(=O)[C@H](CCCNC(=N)N)NC(=O)CNC(=O)[C@H](Cc3ccccc3)NC(=O)[C@H](CCC(=O)O)NC(=O)[C@H](CC(=O)O)NC(=O)[C@H](Cc3ccccc3)NC(=O)[C@H](C(C)C)NC(=O)[C@@H]3CCCN3C(=O)[C@H](CCC(N)=O)NC(=O)[C@H](Cc3ccc(O)cc3)NC1=O)C(=O)N[C@@H](CCC(=O)O)C(=O)N[C@@H](CCSC)C(=O)N[C@@H](CCC(N)=O)C(=O)N[C@@H](CCCNC(=N)N)C(=O)N[C@@H](C)C(=O)N[C@@H](CCCNC(=N)N)C(=O)N[C@H](C(=O)N[C@@H](CC(C)C)C(=O)N[C@@H](CCCNC(=N)N)C(=O)NCC(=O)O)CSSC[C@H](N)C(=O)N1CCC[C@H]1C(=O)N[C@@H](CCC(N)=O)C(=O)N[C@@H](C)C(=O)N2 [V4A] (H-CPQACPAIYQPVFDEFGRMYSNSCEMQRARCLRG-OH; disulfide 1-31, 5-24) | 0.0132 µM
2 | CC[C@H](C)[C@@H]1NC(=O)[C@H](C)NC(=O)[C@@H]2CCCN2C(=O)[C@@H]2CSSC[C@H](NC(=O)[C@H](CO)NC(=O)[C@H](CC(N)=O)NC(=O)[C@H](CO)NC(=O)[C@H](Cc3ccc(O)cc3)NC(=O)[C@H](CCSC)NC(=O)[C@H](CCCNC(=N)N)NC(=O)CNC(=O)[C@H](Cc3ccccc3)NC(=O)[C@H](CCC(=O)O)NC(=O)[C@H](CC(=O)O)NC(=O)[C@H](Cc3ccccc3)NC(=O)[C@H](C(C)C)NC(=O)[C@@H]3CCCN3C(=O)[C@H](CCC(N)=O)NC(=O)[C@H](Cc3ccc(O)cc3)NC1=O)C(=O)N[C@@H](CCC(=O)O)C(=O)N[C@@H](CCSC)C(=O)N[C@@H](CCC(N)=O)C(=O)N[C@@H](CCCNC(=N)N)C(=O)N[C@@H](C)C(=O)N[C@@H](CCCNC(=N)N)C(=O)N[C@H](C(=O)N[C@@H](CC(C)C)C(=O)N[C@@H](CCCNC(=N)N)C(=O)NCC(=O)O)CSSC[C@H](N)C(=O)N[C@@H](C)C(=O)N[C@@H](CCC(N)=O)C(=O)N[C@@H](C(C)C)C(=O)N2 [P2A] (H-CAQVCPAIYQPVFDEFGRMYSNSCEMQRARCLRG-OH; disulfide 1-31, 5-24) | 0.101 µM
3 | CC[C@H](C)[C@@H]1NC(=O)[C@H](C)NC(=O)[C@@H]2CCCN2C(=O)[C@@H]2CSSC[C@H](NC(=O)[C@H](CO)NC(=O)[C@H](CC(N)=O)NC(=O)[C@H](CO)NC(=O)[C@H](Cc3ccc(O)cc3)NC(=O)[C@H](CCSC)NC(=O)[C@H](CCCNC(=N)N)NC(=O)CNC(=O)[C@H](Cc3ccccc3)NC(=O)[C@H](CCC(=O)O)NC(=O)[C@H](CC(=O)O)NC(=O)[C@H](Cc3ccccc3)NC(=O)[C@H](C(C)C)NC(=O)[C@@H]3CCCN3C(=O)[C@H](CCC(N)=O)NC(=O)[C@H](C)NC1=O)C(=O)N[C@@H](CCC(=O)O)C(=O)N[C@@H](CCSC)C(=O)N[C@@H](CCC(N)=O)C(=O)N[C@@H](CCCNC(=N)N)C(=O)N[C@@H](C)C(=O)N[C@@H](CCCNC(=N)N)C(=O)N[C@H](C(=O)N[C@@H](CC(C)C)C(=O)N[C@@H](CCCNC(=N)N)C(=O)NCC(=O)O)CSSC[C@H](N)C(=O)N1CCC[C@H]1C(=O)N[C@@H](CCC(N)=O)C(=O)N[C@@H](C(C)C)C(=O)N2 [Y9A] (H-CPQVCPAIAQPVFDEFGRMYSNSCEMQRARCLRG-OH; disulfide 1-31, 5-24) | > 1000 µM
4 | CC[C@H](C)[C@@H]1NC(=O)[C@H](C)NC(=O)[C@@H]2CCCN2C(=O)[C@@H]2CSSC[C@H](NC(=O)[C@H](CO)NC(=O)[C@H](CC(N)=O)NC(=O)[C@H](CO)NC(=O)[C@H](Cc3ccc(O)cc3)NC(=O)[C@H](CCSC)NC(=O)[C@H](CCCNC(=N)N)NC(=O)CNC(=O)[C@H](Cc3ccccc3)NC(=O)[C@H](CCC(=O)O)NC(=O)[C@H](CC(=O)O)NC(=O)[C@H](Cc3ccccc3)NC(=O)[C@H](C(C)C)NC(=O)[C@@H]3CCCN3C(=O)[C@H](C)NC(=O)[C@H](Cc3ccc(O)cc3)NC1=O)C(=O)N[C@@H](CCC(=O)O)C(=O)N[C@@H](CCSC)C(=O)N[C@@H](CCC(N)=O)C(=O)N[C@@H](CCCNC(=N)N)C(=O)N[C@@H](C)C(=O)N[C@@H](CCCNC(=N)N)C(=O)N[C@H](C(=O)N[C@@H](CC(C)C)C(=O)N[C@@H](CCCNC(=N)N)C(=O)NCC(=O)O)CSSC[C@H](N)C(=O)N1CCC[C@H]1C(=O)N[C@@H](CCC(N)=O)C(=O)N[C@@H](C(C)C)C(=O)N2 [Q10A] (H-CPQVCPAIYAPVFDEFGRMYSNSCEMQRARCLRG-OH; disulfide 1-31, 5-24) | 0.0136 µM
5 | CC[C@H](C)[C@@H]1NC(=O)[C@H](C)NC(=O)[C@@H]2CCCN2C(=O)[C@@H]2CSSC[C@H](NC(=O)[C@H](CO)NC(=O)[C@H](CC(N)=O)NC(=O)[C@H](CO)NC(=O)[C@H](Cc3ccc(O)cc3)NC(=O)[C@H](CCSC)NC(=O)[C@H](CCCNC(=N)N)NC(=O)CNC(=O)[C@H](Cc3ccccc3)NC(=O)[C@H](CCC(=O)O)NC(=O)[C@H](CC(=O)O)NC(=O)[C@H](Cc3ccccc3)NC(=O)[C@H](C(C)C)NC(=O)[C@@H]3CCCN3C(=O)[C@H](CCC(N)=O)NC(=O)[C@H](Cc3ccc(O)cc3)NC1=O)C(=O)N[C@@H](CCC(=O)O)C(=O)N[C@@H](CCSC)C(=O)N[C@@H](CCC(N)=O)C(=O)N[C@@H](CCCNC(=N)N)C(=O)N[C@@H](C)C(=O)N[C@@H](CCCNC(=N)N)C(=O)N[C@H](C(=O)N[C@@H](CC(C)C)C(=O)N[C@@H](CCCNC(=N)N)C(=O)NCC(=O)O)CSSC[C@H](N)C(=O)N1CCC[C@H]1C(=O)N[C@@H](C)C(=O)N[C@@H](C(C)C)C(=O)N2 [Q3A] (H-CPAVCPAIYQPVFDEFGRMYSNSCEMQRARCLRG-OH; disulfide 1-31, 5-24) | 0.114 µM
6 | CC[C@H](C)[C@@H]1NC(=O)[C@H](C)NC(=O)[C@@H]2CCCN2C(=O)[C@@H]2CSSC[C@H](NC(=O)[C@H](CO)NC(=O)[C@H](CC(N)=O)NC(=O)[C@H](CO)NC(=O)[C@H](Cc3ccc(O)cc3)NC(=O)[C@H](CCSC)NC(=O)[C@H](CCCNC(=N)N)NC(=O)CNC(=O)[C@H](Cc3ccccc3)NC(=O)[C@H](CCC(=O)O)NC(=O)[C@H](CC(=O)O)NC(=O)[C@H](Cc3ccccc3)NC(=O)[C@H](C(C)C)NC(=O)[C@@H]3CCCN3C(=O)[C@H](CCC(N)=O)NC(=O)[C@H](Cc3ccc(O)cc3)NC1=O)C(=O)N[C@@H](C)C(=O)N[C@@H](CCSC)C(=O)N[C@@H](CCC(N)=O)C(=O)N[C@@H](CCCNC(=N)N)C(=O)N[C@@H](C)C(=O)N[C@@H](CCCNC(=N)N)C(=O)N[C@H](C(=O)N[C@@H](CC(C)C)C(=O)N[C@@H](CCCNC(=N)N)C(=O)NCC(=O)O)CSSC[C@H](N)C(=O)N1CCC[C@H]1C(=O)N[C@@H](CCC(N)=O)C(=O)N[C@@H](C(C)C)C(=O)N2 [E25A] (H-CPQVCPAIYQPVFDEFGRMYSNSCAMQRARCLRG-OH; disulfide 1-31, 5-24) | > 1000 µM
7 | CC[C@H](C)[C@@H]1NC(=O)[C@H](C)NC(=O)[C@H](C)NC(=O)[C@@H]2CSSC[C@H](NC(=O)[C@H](CO)NC(=O)[C@H](CC(N)=O)NC(=O)[C@H](CO)NC(=O)[C@H](Cc3ccc(O)cc3)NC(=O)[C@H](CCSC)NC(=O)[C@H](CCCNC(=N)N)NC(=O)CNC(=O)[C@H](Cc3ccccc3)NC(=O)[C@H](CCC(=O)O)NC(=O)[C@H](CC(=O)O)NC(=O)[C@H](Cc3ccccc3)NC(=O)[C@H](C(C)C)NC(=O)[C@@H]3CCCN3C(=O)[C@H](CCC(N)=O)NC(=O)[C@H](Cc3ccc(O)cc3)NC1=O)C(=O)N[C@@H](CCC(=O)O)C(=O)N[C@@H](CCSC)C(=O)N[C@@H](CCC(N)=O)C(=O)N[C@@H](CCCNC(=N)N)C(=O)N[C@@H](C)C(=O)N[C@@H](CCCNC(=N)N)C(=O)N[C@H](C(=O)N[C@@H](CC(C)C)C(=O)N[C@@H](CCCNC(=N)N)C(=O)NCC(=O)O)CSSC[C@H](N)C(=O)N1CCC[C@H]1C(=O)N[C@@H](CCC(N)=O)C(=O)N[C@@H](C(C)C)C(=O)N2 [P6A] (H-CPQVCAAIYQPVFDEFGRMYSNSCEMQRARCLRG-OH; disulfide 1-31, 5-24) | 0.105 µM
8 | CC[C@H](C)[C@@H]1NC(=O)[C@H](C)NC(=O)[C@@H]2CCCN2C(=O)[C@@H]2CSSC[C@H](NC(=O)[C@H](CO)NC(=O)[C@H](CC(N)=O)NC(=O)[C@H](C)NC(=O)[C@H](Cc3ccc(O)cc3)NC(=O)[C@H](CCSC)NC(=O)[C@H](CCCNC(=N)N)NC(=O)CNC(=O)[C@H](Cc3ccccc3)NC(=O)[C@H](CCC(=O)O)NC(=O)[C@H](CC(=O)O)NC(=O)[C@H](Cc3ccccc3)NC(=O)[C@H](C(C)C)NC(=O)[C@@H]3CCCN3C(=O)[C@H](CCC(N)=O)NC(=O)[C@H](Cc3ccc(O)cc3)NC1=O)C(=O)N[C@@H](CCC(=O)O)C(=O)N[C@@H](CCSC)C(=O)N[C@@H](CCC(N)=O)C(=O)N[C@@H](CCCNC(=N)N)C(=O)N[C@@H](C)C(=O)N[C@@H](CCCNC(=N)N)C(=O)N[C@H](C(=O)N[C@@H](CC(C)C)C(=O)N[C@@H](CCCNC(=N)N)C(=O)NCC(=O)O)CSSC[C@H](N)C(=O)N1CCC[C@H]1C(=O)N[C@@H](CCC(N)=O)C(=O)N[C@@H](C(C)C)C(=O)N2 [S21A] (H-CPQVCPAIYQPVFDEFGRMYANSCEMQRARCLRG-OH; disulfide 1-31, 5-24) | 0.0168 µM
